{
  "source": "the NIST ThermoML archive (doi:10.1007/s10765-010-0717-9)",
  "settings": "298.15 K; 101.33 kPa; Liquid; Pycnometric method",
  "note": "Numbers after ± are expanded uncertainties.",
  "data": [
    {"smiles": "Cc1ccccc1C", "note": "[1,2-dimethylbenzene]", "values": [
      {"measurement": "mass density", "value": "875.99 ± 5.6", "unit": "kg/m3"}
    ]},
    {"smiles": "Cc1ccc(C)cc1", "note": "[1,4-dimethylbenzene]", "values": [
      {"measurement": "mass density", "value": "856.58 ± 5.3", "unit": "kg/m3"}
    ]},
    {"smiles": "Cc1ccccc1", "note": "[toluene]", "values": [
      {"measurement": "mass density", "value": "862.21 ± 5.4", "unit": "kg/m3"}
    ]}
  ]
}
